Reference: patent US7868135B2, “Compositions of lipopeptide antibiotic derivatives and methods of use thereof” (priority 2003, dated 2011)

Experiments:
[1] = test system: Staphylococcus aureus; assay type: cell-based
Experimental: An exemplary pharmacokinetic parameter to aid in characterizing the properties of lipopeptide derivative compounds of the disclosure is post-antibiotic effect (PAE) of a lipopeptide derivative. For example, a bacterial culture with an initial count of 10^6 to 10^7 colony forming units per ml (CFU/ml) is treated with a certain concentration of lipopetide derivative for a certain time and a parallel (control) culture is left untreated. After treatment, the lipopetide derivative is removed from the culture (e.g., by dilution 1:1000 in fresh, lipopetide derivative-free medium), and the untreated culture is manipulated in the same way. Then the cultures are further incubated and monitored for bacterial growth over time. […] By way of background and not wishing to be bound by theory, a lipopeptide derivative having a measurable PAE activity will likely provide additional time for the host immune system to remove bacteria that might have survived antibiotic treatment and reproduced after the antibiotic is degraded, removed or filtered from the circulatory system. A longer PAE can influence the clinical outcome of antimicrobial therapy (i.e., a lower dose of a lipopetide derivative may be used to treat an infection or the frequency of a dosing regimen can be reduced).
After removal of the lipopeptide compounds, bacterial titre was determined each hour to monitor bacterial re-growth. The PAE duration is defined as the difference in time required for antimicrobial exposed bacterial cells versus unexposed bacterial cells to achieve an increase of 1 log10 unit in CFU/mL.

[2] = in vivo; settings: male, Sprague Dawley, rat, plasma, iv, 10 mg/kg
Experimental: (§1) Yet other exemplary in vivo models can be used to characterize the pharmacokinetics and pharmacodynamic parameters of antimicrobial compounds of this disclosure. Some parameters that can be measured include an in vivo half-life of a compound, elimination rate and clearance, volume of distribution, and bioavailability. For example, briefly, compounds can be administered as a single i.v. or oral (p.o.) dose in mice or rats. At various time points (ranging from 1 minute to 72 hours), blood from treated animals is collected and the concentration of lipopeptide derivative in the ex vivo plasma can be quantified by, for example, liquid chromatography with mass spectrometric detection (LC/MS). After quantification, pharmacokinetics parameters can be calculated using methods known in the art, such as a one compartment model with mono-exponential decay and linear regression analysis (see, e.g., Fantin et al., Antimicrob. Agents Chemotherap. 35: 1413. 1991).
(§2) A pharmacokinetic parameter that can be measured, and which aids in determining efficacy, after a single i.v. administration of an antimicrobial lipopeptide derivative of the instant disclosure is the systemic half-life of the compound. Briefly, test compounds were dissolved in a 5% mannitol solution (pH was then adjusted) to a concentration of 1 mg/mL (w/v). A single intravenous injection in the lateral caudal vein of Swiss CD1 mice (5 to 6 weeks old, female) or Sprague Dawley rats (male) was used to administer the lipopeptide derivative at a final dose of 10 mg/kg. At various time points (ranging from about 4 minutes to about 24 hours for mice, and 48 or 72 hours for rats) mice were sacrificed and blood was harvested. The concentration of lipopeptide derivative in ex vivo plasma was quantified using liquid chromatography (LC) with mass spectrometric detection (MS).

[3] = test system: S. aureus Smith (SAU0017, ATCC 19636); assay: Intraperitoneal murine model of protection against infection (ED50, Table 21); assay type: in vivo, Staphylococcus aureus
From the text: (§3) A variety of in vivo models may be used to assess the antimicrobial properties of lipopeptide derivative compounds of this disclosure. For example, antimicrobial compounds of the instant disclosure may be tested for efficacy by measuring a compound's ability to protect a mouse against a microbial infection, such as an infection or disease caused by or related to Gram-positive bacteria, including Staphylococcus aureus, Streptococcus pneumoniae, and Enterococcus faecalis. […] A certain period after infection, mice are then individually treated, for example intravenously (i.v.), with a lipopeptide derivative of this disclosure.
(§4) Antimicrobial lipopeptide derivatives of the instant invention were tested for antimicrobial activity against Gram-positive bacteria in an intraperitoneal (i.p.) murine model (i.e., bacteria were injected i.p. and lipopeptide compounds were administered intravenously (i.v.)). Mice were infected with Staphylococcus aureus, Streptococcus pneumoniae, or Enterococcus faecalis, which were prepared as follows: S. aureus Smith (SAU0017, ATCC 19636) were grown in culture overnight on trypticase soy broth, harvested and then resuspended in fresh media containing 5% mucin (Sigma Chemical Co.); S. pneumoniae (SPN 0032, ATCC 10813) were grown overnight on blood agar plates and re-suspended in 0.9% sterile saline; and E. faecalis EFS0040 (clinical isolate) were grown overnight in culture on blood heart infusion broth, washed and resuspended in 0.9% saline and mixed with equal volume of sterile fecal rat extract. Swiss CD1 mice were each infected i.p. with bacteria at the following doses: S. aureus at 10^6 CFU/mouse; S. pneumoniae at 10^2 CFU/mouse; or E. faecalis at 10^7.5 CFU/mouse. […] The ED50 for each compound was calculated using the method of Reed and Meunch (Am. J. Hyg. 27: 493, 1938).

[4] = Acute toxicity, maximum tolerated dose (MTD); settings: Swiss CD1, mouse, in vivo, iv
Experimental: Another measure of toxicity is the maximum tolerated dose (MTD), which is determined as a dose level that is not accompanied by mortality or life-threatening toxicity. The dose ratio between toxic and therapeutic effect is the therapeutic index. […] The data obtained from these cell culture assays and animal studies can be used in formulating a dosage range that is not toxic for use in human subjects. […] The dosage may vary within this range depending upon the dosage form employed and the route of administration utilized. The exact formulation, route of administration and dosage can be chosen by the individual physician in view of the patient's condition or need thereof (see, e.g., Fingl et al., 1975, In: The Pharmacological Basis of Therapeutics, Chapter 1).
For example, to examine acute toxicity, lipopeptide antibiotics of the invention can be tested in an animal model, such as Swiss CD1 mice, to determine the MTD. In certain embodiments, the animals used to test toxicity of a particular compound can be approximately 5-6 weeks old at the start of the experiment and weigh 22-26 g. The lipopeptides may be administered intravenously (i.v.) into, for example, the caudal tail vein at dose levels that range from about 50 to about 500 mg/kg, or from about 75 to about 250 mg/kg, or from about 100 to about 200 mg/kg, or at a dose range at or below 100 mg/kg. The animals are generally observed immediately after administration, 1-2 hours post administration, 5-8 hours post administration, and once daily thereafter. Observations include both the activity level of the mouse as well as any physical side effects from the administered dose. The animal weight is recorded on day 0 (immediately before dosing) and on day 7.

[5] = test system: E. faecalis EFS0040 (clinical isolate); assay: Intraperitoneal murine model of protection against infection (ED50, Table 21); assay type: in vivo, Enterococcus faecalis
From the text: as §3, §4

[6] = test system: Streptococcus pneumoniae (SPN032, ATCC 1081); assay: Intranasal murine lung infection model; assay type: in vivo
Experimental: (§5) Other exemplary in vivo models of infection that may be used to assess, for example, the efficacy of an antimicrobial lipopeptide of the instant disclosure include the following: (A) a mouse (murine) model of lung infection (pneumonia) wherein the bacterial infection is administered intranasally (i.n.); (B) a murine thigh muscle model wherein the bacterial infection is administered intramuscularly (i.m.) in normal or neutropenic (immunocompromised) mice; and (C) a combination murine thigh muscle model (i.m. infection)/lung (i.n.) infection.
Antimicrobial lipopeptide derivatives of the instant invention were tested for antimicrobial activity against Gram-positive bacteria in an intranasal (i.n.) murine lung infection model (i.e., bacteria were innoculated i.n. and lipopeptide compounds were administered i.v.). Streptococcus pneumoniae (SPN032, ATCC 1081) were grown on 5% sheep blood agar plates for 24 h at 37° C., harvested and then resuspended in 0.9% saline. A group of eight Swiss CD1 mice were sedated with 2% isoflurane, and each was infected i.n. dropwise to the nares with 50 μl of the prepared bacterial inoculum (i.e., a dose of about 10^6 CFU/mouse). […] The ED50 (mg/kg) for each compound was calculated using the method of Reed and Meunch (Am. J. Hyg. 27: 493, 1938).

[7] = In vivo half-life after single i.v. administration, mice; settings: female, Swiss CD1, mouse, plasma, iv, 10 mg/kg
Experimental: as §1, §2

[8] = test system: Staphylococcus aureus (SAU0017); assay: Kill curve (bactericidal activity); assay type: cell-based; settings: FIG. 5A
Experimental: (§6) Another measure of the antimicrobial properties of the lipopeptide derivative compounds of this disclosure includes kill curve measurements. Kill curve experiments generally involve exposure of microorganisms to varying concentrations (e.g., multiples of a compound's MIC) of a test compound. The microorganisms may be in culture at log phase of growth or may be in a particular host tissue (e.g., lung) for up to 24 hours before exposure to a test compound. At selected time points, a sample of each culture or tissue can be analyzed for a titre of viable microorganisms, which is generally gauged against the time required for a compound to inhibit growth or kill bacteria.
(§7) Kill curve experiments were performed with both Staphylococcus aureus (SAU0017) and Enterococcus faecalis (EFS0004) organisms grown to log phase, which were suspended in cation-adjusted Mueller-Hinton broth with additional 0.625 mM Ca^+2 to a concentration of 10^6 CFU/mL. The cultures were then exposed to varying concentrations (i.e., multiples of the MIC) of a lipopeptide derivative and incubated at about 37° C. At selected time points from about 0 hours to about 24 hours, a sample of each culture was analyzed for a titre of viable organisms (CFU/ml), which was compared against the time required for each compound to kill bacteria.

[9] = test system: Enterococcus faecalis (EFS0004); assay: Kill curve (bactericidal activity); assay type: cell-based; settings: FIG. 4A
Experimental: as §6, §7

[10] = test system: S. pneumoniae (SPN 0032, ATCC 10813); assay: Intraperitoneal murine model of protection against infection (ED50, Table 21); assay type: in vivo, Streptococcus pneumoniae; settings: Streptococcus pneumoniae, ATCC10813, read-out: ED50 in Mice, S. pneumoniae (SPN0032)
From the text: as §3, §4

[11] = test system: Staphylococcus aureus (SAU0017); assay: Thigh infection model in neutropenic mice; assay type: in vivo; settings: Staphylococcus aureus, iv
Experimental: as §5

[12] = Swiss CD1 mice infected i.p., compound i.v.

Row | Structure (SMILES) | Post Antibiotic Effect (hours) 0.5 × MIC ([1]; exposure one hour at 0.5 × MIC, S. aureus log phase) | Post Antibiotic Effect (hours) 1 × MIC ([1]; exposure one hour at 1 × MIC) | Post Antibiotic Effect (hours) 2 × MIC ([1]; exposure one hour at 2 × MIC) | Post Antibiotic Effect (hours) 4 × MIC ([1]; exposure one hour at 4 × MIC) | half-life [2] | ED50 in Mice, S. aureus (SAU0017) [3, 12] | MTD at 7 days [4] | ED50 in Mice, E. faecalis (EFS0040) [5, 12] | ED50 ([6]; Swiss CD1 mice, i.n. S. pneumoniae, i.v. treatment at 3, 24 and 48 hours post-infection, deaths over ten days) | half-life [7] | bactericidal or bacteriostatic in kill curve [8] | bactericidal or bacteriostatic in kill curve [9] | ED50 ([3]; Staphylococcus aureus, ATCC19636, read-out: ED50 in Mice, S. aureus (SAU0017)) | ED50 [10] | ED50 ([5]; Enterococcus faecalis, read-out: ED50 in Mice, E. faecalis (EFS0040)) | ED50 ([6]; Streptococcus pneumoniae, ATCC1081, iv) | ED50 [11]
1 | CCCCCCCCCCCC(=O)Nc1ccc(C(=O)NC(CC(=O)O)C(=O)NC2C(=O)N3CCCCC3C(=O)NC(C(C)C(=O)O)C(=O)NC(CC(=O)O)C(=O)NCC(=O)NC(CC(=O)O)C(=O)NCC(=O)NC(C(C)NC(=O)CCN)C(=O)NC(C(C)C)C(=O)N3CCCC3C(=O)NC2C)cc1 (stereo not drawn) [Compound 280, C12-PABA-Amphomycin-9-(β-Ala)] | 2.5 h | 1.5 h | 1.9 h | 2.4 h | 7.07 h | 6.5 mg/kg | 200 to 400 mg/kg | 2.1 mg/kg | 1.8 mg/kg | 5.75 h |  |  |  |  |  |  | 
2 | CN[C@H](CC(C)C)C(=O)N[C@H]1C(=O)N[C@@H](CC(N)=O)C(=O)N[C@H]2C(=O)N[C@H]3C(=O)N[C@H](C(=O)N[C@H](C(=O)O)c4cc(O)cc(O)c4-c4cc3ccc4O)[C@H](O)c3ccc(c(Cl)c3)Oc3cc2cc(c3O[C@@H]2O[C@H](CO)[C@@H](O)[C@H](O)[C@H]2O[C@H]2C[C@](C)(N)[C@H](O)[C@H](C)O2)Oc2ccc(cc2Cl)[C@H]1O [Vancomycin, reference compound] |  |  |  |  |  |  |  |  |  |  | bacteriostatic | bacteriostatic | 0.9 to 2.4 mg/kg | 1.75 mg/kg | 2 mg/kg | 3 to 4.3 mg/kg | 0.9 to 1.6 mg/kg
